# Test results from patent publication US20250161297A1, “COMPOSITIONS AND METHODS FOR INHIBITING FSP1” (THE REGENTS OF THE UNIVERSITY OF CALIFORNIA, priority 2022, published 2025).
# Legend:
# NQO1 = target: T1, NQO1 (Homo sapiens, UniProt P15559); assay: NQO1 CoQ oxidoreductase activity assay; format: biochemical
# T1 construct: His6 (N); TEV cleavage site (N); made in house; host or cells: E. coli LOBSTR-BL21 (DE3)
# Protocol: FSP1 and NQO1% Activity Curves: To measure in vitro activity of FSP1 and NQO1 for IC50 calculation, recombinant purified FSP1 and NQO1 were diluted in PBS. FSEN1 was dissolved and diluted in DMSO, and […] FSEN1 and 12.5 μL FSP1/NQO1 were mixed on an orbital shaker for 45 seconds at 450 rpm and incubated for 30 minutes in a NBS polystyrene 384-well plate (Corning Ref: 3640) at RT. NADH (Millipore Cat: 481913) was dissolved and diluted in PBS, and CoQ1 (Sigma-Aldrich SKU: C7956) was dissolved in DMSO and diluted in PBS. Diluted NADH and CoQ1 were combined into a 2×reaction mix and added to the plate wells to start the reaction. Final well volume was 25 μL, and final concentrations were 12.5n M FSP1, 400 µM CoQ1, 500 µM NADH, and 0.01-20 µM FSEN1. NADH Absorbance (355 nm) was measured as an inverse read-out of enzymatic product formation on a kinetic cycle with an interval time of 2.5 minutes at RT. All data was acquired using a Tecan infinite M1000. Raw data from 3 biological replicates were then plotted and initial slopes were calculated using a linear regression in prism (GraphPad), and all rates were normalized to vehicle (0 nM FSEN1) and No Protein controls where the highest and lowest slope values were used as 0 and 100%. […]
# H460^C cells = assay: GPX4 inhibitor-induced cell death with FSEN1 co-treatment; format: cell-based
# Protocol: (§1) For cell-based screen, cells were seeded in triplicate at a density of 500-750 cells per 50 μL per well in black 384-well plates (NUNC) and (Corning) 24 hr before start of imaging. After 24 hr, an additional 50 μL of drug infused medium containing 30 nM SYTOX Green Dead Cell Stain was carefully placed into the wells on top of existing medium. The plates were immediately transferred to an IncuCyte S3 imaging system (Essen Bioscience) enclosed in an incubator set to 37° C. and 5% CO2. One image per well were captured in the phase, green, and red channels every 1.5 or 3 hr over a 24 hr period, and the ratio of SYTOX Green-positive objects (dead cells) to SYTOX Green-positive plus Sg-SAFE mCherry-positive objects (total cells) was quantified using S3 image analysis software (Essen Bioscience). For each treatment condition, the SYTOX-to-′SYTOX+mCherry′-object ratio was plotted against the 24 hr imaging interval, the Area Under the Curve (AUC) was calculated and the average AUC was plotted using Prism (GraphPad). To calculate the half-maximal effective concentration (EC50) values, the AUC curve was fit to a variable slope function comparing response to drug concentration.
# Synergy experiments: For cell-based synergy experiments, cells were seeded at a density of 750 cells per 25 μL per well in four black 384-well plates (Corning) 24 hr before start of imaging. After 24 hr, an additional 25 μL of drug infused medium containing 30 nM SYTOX Green Dead Cell Stain was carefully placed into the wells on top of existing medium. The plates were immediately transferred to an IncuCyte S3 imaging system (Essen Bioscience) enclosed in an incubator set to 37° C. and 5% CO2. One image per well were captured in the phase, green, and red channels every 4 hr over a 24 hr period, and the ratio of SYTOX Green-positive objects (dead cells) to SYTOX Green-positive plus Sg-SAFE mCherry-positive objects (total cells) was quantified using S3 image analysis software (Essen Bioscience). For each treatment condition, the SYTOX-to-′SYTOX+mCherry′-object ratio was plotted against the 24 hr imaging interval, the Area Under the Curve (AUC) was calculated, and the average AUC was plotted as a function of drug concentration (for example, RSL3) using Prism (GraphPad). To calculate the half-maximal effective concentration (EC50) values, the AUC curve was fit to a variable slope function comparing response to drug concentration.
# H460^C FSP1KO cells = assay: RSL3-, DHA- or FINO2-induced cell death in FSP1 knockout cells; format: cell-based
# Protocol: as §1
# Synergy experiments: For cell-based synergy experiments, cells were seeded at a density of 750 cells per 25 μL per well in four black 384-well plates (Corning) 24 hr before start of imaging. […]
# [1] = tested on: panel of cancer cell lines of various tissue origins; assay: RSL3-induced cell death in a panel of cancer cell lines; format: cell-based; settings: 1 μM FSEN1; lung, breast, liver, glial, bone, connective, lymphoid, skin lines
# Protocol: as §1, with “concentration. […]” for “concentration.”
# A549 lung cancer cells = assay: RSL3-induced cell death in A549 cells; format: cell-based
# Protocol: as §1, with “concentration. […]” for “concentration.”
# A375 melanoma cells = assay: cell death in A375 cells; format: cell-based
# Protocol: as §1, with “concentration. […]” for “concentration.”
# T1 sequence (P15559 2-274): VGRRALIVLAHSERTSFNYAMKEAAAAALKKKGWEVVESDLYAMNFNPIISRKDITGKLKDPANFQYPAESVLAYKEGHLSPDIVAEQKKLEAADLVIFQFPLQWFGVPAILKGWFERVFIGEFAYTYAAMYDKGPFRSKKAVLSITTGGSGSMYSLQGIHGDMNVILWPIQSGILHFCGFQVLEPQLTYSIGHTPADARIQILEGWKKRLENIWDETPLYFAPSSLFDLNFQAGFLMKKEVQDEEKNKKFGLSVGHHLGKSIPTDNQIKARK
compound,measurement,setting,value
COc1ccc(N2CCN(Cc3cn4c(-c5ccc(Br)cc5)nnc4s3)CC2)cc1 [FSEN1],effect on the CoQ oxidoreductase activity of NQO1,NQO1,no effect
same,sensitization to GPX4 inhibitors RSL3 and ML162,H460^C cells,sensitized
same,additional sensitizing effect to DHA and FINO2 induced cell death,H460^C FSP1KO cells; FSP1KO cells,no additional sensitizing effect
same,additional sensitization to RSL3-induced cell death,H460^C FSP1KO cells; H460^C FSP1KO cells,did not result in any additional sensitization
same,sensitization to RSL3-induced ferroptosis,[1],sensitized all cancer cells
same,sensitizing effect on ferroptosis induction,A549 lung cancer cells,particularly large sensitizing effect
same,ferroptosis in the absence of an RSL3 co-treatment,A375 melanoma cells,induced a small amount of ferroptosis
